# Assay results published in publication PMC4552634, “A New Set of Chemical Starting Points with Plasmodium falciparum Transmission-Blocking Potential for Antimalarial Drug Discovery” (PLoS ONE, 2015).
# pIC50: −log10 of the molar value. Read-outs that look alike come from different tables or passages of the source.
# How the values were obtained:
# [1] = tested on: P. falciparum stage V gametocytes; experiment: Gametocytocidal ATP bioluminescence assay (single point 5 μM and 1 μM, dose-response); format: cell-based, Plasmodium falciparum; conditions: for Ratio IC50 HepG2/IC50 P. falciparum: IC50 HepG2 divided by IC50 P. falciparum gametocytes; for IC50: P. falciparum gametocytes, average, read-out: IC50 Pf Gametocytes average, IC50 (µM) average; for pIC50: sexual stages (gametocytes), dose-response, read-out: IC50 sexual
# Experimental: Purified stage IV-V gametocytes were obtained as previously described [10]. Single point ATP bioluminescence assay and dose–response of positive hits was determined in accordance with the previously published protocol [10].
# HepG2 cells = experiment: Cytotoxicity in HepG2 cells (intracellular ATP, ATPlite, 48 h); format: cell-based, human; conditions: IC50 HepG2 divided by IC50 P. falciparum gametocytes
# Experimental: (§1) Cells were grown and maintained in EMEM (Sigma-Aldrich) supplemented with 2mM L-glutamine (Sigma-Aldrich) and 10% fetal calf serum (Perbio). […] Passages were routinely made upon reaching 80–90% confluence. For cytotoxicity experiments, cells were seeded onto 96-well clear bottom black plates coated with type I collagen (Biocoat, Becton Dickinson) at a cell density of 20,000 cells/well.
# (§2) To determine cytotoxic effects, represented by the Tox50 value (the concentration of drug that reduces cell viability by 50%), cells were exposed to serial dilutions of compounds for 48 h at 37°C. The assay medium was as previously described, but supplemented with 5% fetal calf serum instead of 10%. […] In the presence of ATP, luminescence is emitted as the reaction described earlier for the BacTiter-Glo kit. Percentages of inhibition were calculated relative to vehicle control wells.
# [2] = as above; format: cell-based, human; conditions: human, HepG2 cells
# Experimental: as §1, §2
# [3] = tested on: P. falciparum asexual stages; conditions: TCAMS data, cited from earlier work; for IC50: P. falciparum asexual stages, read-out: IC50 (µM) Pf asexual stages; for pIC50: asexual stages, read-out: IC50 asexual
# [4] = tested on: luciferase reaction (BacTiter-Glo); experiment: Interference assay (inhibition of the BacTiter-Glo luciferase reaction); format: biochemical; design: concentration or dose not given beside the values; conditions: ATP interference assay
# Experimental: To discard possible false-positive results, we performed an interference assay in parallel. […] […]. The ATP solution was made by dissolving ATP powder (ATP standard from the ATPlite 1 step assay kit, reference 6016731, Perkin Elmer) in culture medium. The positive control used was the Luciferase Inhibitor I Calbiochem (Merck, 119113) at 100 μM.
# [5] = IC50 per ratio column head, unit inferred, read-out: Cytotoxicity in HepG2
# [6] = HepG2, 48 h exposure, intracellular ATP, read-out: IC50 (μM) Cytotoxicity HepG2
Compound,Ratio IC50 HepG2/IC50 P. falciparum [1],IC50 ([1]; Plasmodium falciparum) [µM],pIC50 ([1]; Plasmodium falciparum),Ratio IC50 HepG2/IC50 P. falciparum (HepG2 cells),"IC50 at 48 h [2, 5] [µM]",IC50 [3] [µM],pIC50 [3],% Control luminiscence [4] [%],"IC50 at 48 h [2, 6] [µM]",pIC50 [1],"%_Inh ([1]; gametocytes, primary screen at 5 μM (S10 Table, MCSI analogs)) [%]"
Cn1nc(C(F)(F)F)c(-c2ccc(Br)cc2)c1NC(=O)Cc1ccccc1F [TCMDC-123792],>14,1.79,5.75,>14,> 25,0.16,6.80,100,,,
COc1cc2nc(N3CCN(c4nc(N)c5cc(OC)c(OC)cc5n4)CC3)nc(N)c2cc1OC [TCMDC-123865],>96,0.26,,>96,> 25,0.15,6.84,100,,,
C=CCN(C(=O)c1ccc(Cl)c([N+](=O)[O-])c1)c1nc(-c2ccccc2)cs1 [TCMDC-124436],>237,0.11,6.98,>237,> 25,0.4,6.40,100,,,
Cc1cc(Nc2ccncc2)n2nc(C)c(-c3ccc(Cl)cc3)c2n1 [TCMDC-124478],>55,0.91,6.04,>55,> 50,0.16,6.80,100,> 25,,
Cc1ccc(C)c(CC(=O)N2CCC(n3c(C)nc4ccc(F)cc43)CC2)c1 [TCMDC-124790],>27,0.92,6.03,>27,> 25,0.19,6.71,100,,,
COc1cccc(CC(=O)N2CCC(n3c(C)nc4ccc(C)cc43)CC2)c1 [TCMDC-124791],>53,0.47,,>53,> 25,0.11,6.94,100,,,
O=C(c1ccc([N+](=O)[O-])o1)N1CCC(Cc2ccc(C(F)(F)F)cc2)CC1 [TCMDC-124805],55,0.26,6.59,55,14.1,0.17,6.78,100,14,,
CCc1nn2c(Nc3ccncc3)cc(C)nc2c1-c1ccccc1 [TCMDC-124917],>13,1.9,5.72,>13,> 25,0.2,6.69,93,,,
Cc1cc(Nc2ccncc2)n2nc(C)c(-c3ccccc3Cl)c2n1 [TCMDC-124918],>13,1.94,5.71,>13,> 25,0.65,6.18,100,,,
COc1ccc(NC(=O)C2c3ccccc3C(=O)N(CC(C)C)C2c2cccs2)cc1OC (stereo not shown) [TCMDC-125289],>58,0.43,6.37,>58,> 25,0.2,6.69,100,,,
CCN(CC)CCCOC(=O)c1ccc2c(c1)-c1ccc(C(=O)OCCCN(CC)CC)c3cccc-2c13 [TCMDC-125491],140,0.14,,140,20,,6.03,96,,6.84,
NC1CCN(Cc2ccc(-c3ccc(-c4nc5cc(F)ccc5[nH]4)cc3)cc2)C1 (stereo not shown) [TCMDC-133872],9,0.83,6.08,,7.25,0.18,6.74,100,7,,
Cc1cccc2nc(-c3ccc(-c4cccc(CN5CCC(CCN6CCCCC6)CC5)c4)s3)[nH]c12.O=C(O)C(F)(F)F [TCMDC-133923],8,0.46,6.33,,3.87,,6.85,100,,,107.301
Fc1ccc2[nH]c(-c3ccc(-c4ccc(CN5CCC(CCN6CCCCC6)CC5)cc4)cc3)nc2c1 [TCMDC-133924],12,0.46,,,5.3,,6.89,100,,,
Cc1cccc2nc(-c3ccc(-c4ccc(CN5CCC(CCN6CCCCC6)CC5)cc4)cc3)[nH]c12 [TCMDC-133929],14,0.27,,,3.7,,6.84,100,,6.57,
Fc1ccc2[nH]c(-c3ccc(-c4ccc(CN5CCC(CCN6CCCCC6)CC5)cc4)s3)nc2c1 [TCMDC-133932],27,0.14,,,3.79,,6.85,100,,,
Fc1ccc2[nH]c(-c3cccc(-c4ccc(CN5CCC(CCN6CCCCC6)CC5)cc4)c3)nc2c1 [TCMDC-133940],12,0.43,,,5.2,,6.85,100,,6.36,
FC(F)(F)c1ccc2[nH]c(-c3ccc(-c4cccc(CN5CCC(CCN6CCCCC6)CC5)c4)cc3)nc2c1 [TCMDC-133941],6.67,0.51,,,3.4,,6.82,100,,,
CCc1ccc(CN2CCC(CNC(=O)c3cc(-c4cccc(F)c4)cs3)C2)cc1 (stereo not shown) [TCMDC-134432],6,1.26,,,7.22,,5.87,100,,5.90,
COc1ccc(-c2cnc3[nH]cc(-c4ccncc4)c3c2)cc1OC [TCMDC-135853],3.46,0.9,,,3.1,,6.90,92,,6.05,
FC(F)c1nc2ccccc2n1-c1nc(N2CCOCC2)nc(N2CCOCC2)n1 [TCMDC-137004],0.291,5.44,,,1.58,,6.12,98,,5.26,
N=C(NCC1CC1c1ccccc1)c1cccc(C(=N)NCC2CC2c2ccccc2)n1 (stereo not shown) [TCMDC-137456],15,0.45,,,6.8,,5.76,100,,,
CN1CCN(CCCCNc2c3ccccc3nc3ccccc23)CC1 [TCMDC-137479],2.57,1.32,,,3.39,,6.15,100,,5.88,
COc1ccc2nc(-c3ccccc3)cc(NCCCNc3cc(-c4ccccc4)nc4ccc(OC)cc34)c2c1.Cl [TCMDC-137734],4.53,1.21,,,5.5,,6.91,100,,5.92,
COc1cc2nc(N3CCN(C(=O)c4c(Cl)nsc4-c4ccccc4Cl)CC3)nc(N)c2cc1OC.O=C(O)C(F)(F)F [TCMDC-138186],38,0.22,,,8.18,,6.27,100,,6.67,
COc1cc2nc(N3CCC(CNC(=O)c4ccc(-c5ccc(-c6noc(C)n6)cc5)cc4)CC3)nc(N)c2cc1OC [TCMDC-138754],39,0.11,,,4.33,,6.86,97,,,
COc1cc2nc(N3CCC(CNCc4ccc(-c5ccc(C(F)(F)F)cc5)cc4)CC3)nc(N)c2cc1OC [TCMDC-138757],<88,0.0177,,,< 1.56,,7.06,100,,7.74,
CC(C)CCNC(=O)c1cnc2c(O)cccc2c1Nc1cccc(NC(=O)c2ccc(F)cc2)c1.O=C(O)C(F)(F)F [TCMDC-139606],4,1.27,,,5.27,,6.04,98,,,
COc1ccc(CNC(=O)c2cnc3c(O)cccc3c2Nc2cccc(NC(=O)c3ccc(Cl)c(Cl)c3)c2)cc1.O=C(O)C(F)(F)F [TCMDC-139607],<2.3,0.68,,,< 1.56,,6.22,100,,,
COc1cc(NCC(C)CNCc2cn(Cc3ccccc3)c3ccccc23)nc2ccccc12 (stereo not shown) [TCMDC-140496],3,1.71,,,5,,6.20,100,,,
